# Experimental data as given in US20230241142A1, “USE OF A POLAR EXTRACT OF SKELETONEMA IN PHOTODYNAMIC THERAPY” (IFREMER, priority 2020, published 2023).
# How the values were obtained:
# Format in all cases: cell-based
# [1] = tested on: normal human epidermal keratinocytes (NHEK); assay: anti-inflammatory effect: IL-6 secreted by Poly(I:C)-stimulated keratinocytes (ELISA); details: NHEK stimulated with Poly(I:C) 1 µg/mL + Bafilomycin 100 nM
# Description: (§1) The anti-inflammatory properties of S. marinoï polar algae extract were evaluated on normal human epidermal keratinocytes (NHEK) These NHEK human epidermal keratinocytes were seeded in K-SFM medium supplemented with 0.25 ng/mL of EGF (Epidermal Growth Factor), 25 µg/mL of pituitary extract and 25 µg/mL of Gentamycin in 96-well plates to then be incubated at 37° C. under an atmosphere containing 5% CO2. After at least one day of culturing, the NHEK cells are pre-incubated for 24 hours in the presence or absence of different concentrations of the S. marinoï polar extract. As a positive control of anti-inflammatory activity, NHEK cells were also pre-incubated in the presence of bafilomycin (100 nM). After this pre-incubation, the treatments were renewed and the NHEK cells are then incubated for 24 hours in the presence of poly (I:C) for inducing inflammation. A control condition without inflammation inducer (unstimulated control) was performed in parallel. After incubation, the culture supernatant was collected to determine the level of keratinocyte inflammation by ELISA by measuring the amounts of IL-6 secreted.
# [2] = tested on: normal human epidermal keratinocytes (NHEK); assay: cell viability (WST-8) of Poly(I:C)-stimulated keratinocytes; details: NHEK stimulated with Poly(I:C) 1 µg/mL + Bafilomycin 100 nM
# Description: The anti-inflammatory properties of S. marinoï polar algae extract were evaluated on normal human epidermal keratinocytes (NHEK)
# as §1, with “These” for “The anti-inflammatory properties of S. marinoï polar algae extract were evaluated on normal human epidermal keratinocytes (NHEK) These”, “parallel.” for “parallel. After incubation, the culture supernatant was collected to determine the level of keratinocyte inflammation by ELISA by measuring the amounts of IL-6 secreted.”
# [3] = tested on: human sebocytes of the SEBO662AR line; assay: anti-lipogenic effect: total lipids (BODIPY probe) in stimulated sebocytes; details: cells stimulated with lipogenic mixture containing androgens + Cerulenin 10 µM
# Description: The effect of S. marinoï polar algae extract on the overproduction of lipids was studied on human sebocytes of the SEBO662AR line (BIOALTERNATIVES line) stimulated by lipogenic and androgenic factors.
# SEBO662AR human sebocytes were first cultured at 37° C. in the presence of 5% CO2 and antibiotics in a dedicated culture medium. After at least one day of culturing, lipogenesis is induced in the SEBO662AR cells by their incubation in the presence of lipogenic and androgenic factors. The cells are then incubated in the presence or in the absence of 3 distinct concentrations of the polar extract. As a positive control of lipogenesis inhibitory activity, the SEBO662AR cells are incubated in the presence of cerulenin. At the end of the incubation period, the total lipids are fluorescently labelled, and the inhibition of lipogenesis is determined for each condition.
SMILES,IL6 [1] [pg/mL],Cell viability (WST-8) [2],Lipids (BODIPY® probe) Fluorescence intensity /Number of nuclei [3],Stimulation % [3] [%]
"CO/C1=C\C(C)=C\[C@@H](C)[C@@H](O)[C@@H](C)C/C(C)=C/C=C/[C@H](OC)[C@@H]([C@@H](C)[C@@H](O)[C@H](C)[C@@]2(O)C[C@@H](O)[C@H](C)[C@@H](C(C)C)O2)OC1=O [Bafilomycin, bafilomycin]",13,100,,
"C/C=C/C/C=C/CCC(=O)[C@H]1O[C@H]1C(N)=O [Cerulenin, cerulenin]",,,188 853^∗∗,63
